Consider 4 compounds from patent publication US4170642A, “Derivatives of kanamycin A” (Zaidan Hojin Biseibutsu Kagaku Kenkyu Kai, priority 1974, dated 1979).

Broadly, the MIC is the least concentration at which growth counts as inhibited. Read a low MIC as a more susceptible organism.

Molecules are shown by their SMILES. Values after ≈ are worked out from the molar mass of the structure shown.

What all share (format): cell-based
In test [1] the test system is Escherichia coli JR66/W677. The test is described as follows: MIC by serial dilution method on nutrient agar. As to conditions: for MIC: nutrient agar, 37° C. How it is done:
(§1) The minimum inhibitory concentrations (MIC) of 1-AHB-6'-MKM and 1-AHB-6'-EKM against various micro-organisms were determined by the serial dilution method using a nutrient agar medium at 37° C.

For test [2], the system named is Escherichia coli K-12 ML1410. In words: MIC by serial dilution method on nutrient agar. To be noted: K12ML1410, 37° C. How it is done: as §1
Test [3] deals with Escherichia coli K-12 ML1629. In words: MIC by serial dilution method on nutrient agar. To be noted: for MIC: K12ML1629, nutrient agar, 37° C. On the procedure: as §1
Test [4] deals with Escherichia coli K-12 ML1630. The test is described as follows: MIC by serial dilution method on nutrient agar. As to conditions: for MIC: K12ML1630, nutrient agar, 37° C. On the procedure: as §1
In another test the test system is Escherichia coli K-12 R5. The test is described as follows: MIC by serial dilution method on nutrient agar. As to conditions: K12R5. On the procedure:
as §1

A further test deals with Escherichia coli K-12. The test is described as follows: MIC by serial dilution method on nutrient agar. To be noted: K12, 37° C. On the procedure:
as §1

The subject of test [5] is Escherichia coli LA290 R55. In words: MIC by serial dilution method on nutrient agar. To be noted: LA290R55. On the procedure:
as §1

Test [6] deals with Escherichia coli LA290 R56. The test is described as follows: MIC by serial dilution method on nutrient agar. To be noted: LA290R56. How it is done:
as §1

In test [7] the test system is Escherichia coli LA290 R64. In words: MIC by serial dilution method on nutrient agar. To be noted: LA290R64. On the procedure: as §1
The subject of another test is Escherichia coli W677. The test is described as follows: MIC by serial dilution method on nutrient agar. To be noted: 37° C. On the procedure:
as §1

Test [8] relates to Klebsiella pneumoniae 22#3038. The test is described as follows: MIC by serial dilution method on nutrient agar. As to conditions: for MIC: nutrient agar, 37° C. On the procedure:
as §1

In test [9] the test system is Klebsiella pneumoniae PCI 602. In words: MIC by serial dilution method on nutrient agar. To be noted: PCI602, 37° C. How it is done: as §1
Test [10] concerns Mycobacterium smegmatis ATCC607. In words: MIC by serial dilution method on nutrient agar. As to conditions: Mycolicibacterium smegmatis, 37° C. On the procedure:
as §1

The test system of test [11] is Pseudomonas aeruginosa 99. The test is described as follows: MIC by serial dilution method on nutrient agar. As to conditions: 37° C. How it is done:
as §1

Test [12] concerns Pseudomonas aeruginosa A3. The test is described as follows: MIC by serial dilution method on nutrient agar. As to conditions: 37° C. How it is done: as §1
Test [13] has as its system Pseudomonas aeruginosa GN315. The test is described as follows: MIC by serial dilution method on nutrient agar. To be noted: for MIC: nutrient agar, 37° C. How it is done:
as §1

The subject of test [14] is Pseudomonas aeruginosa No. 12. In words: MIC by serial dilution method on nutrient agar. As to conditions: 37° C. How it is done:
as §1

For test [15], the system named is Pseudomonas aeruginosa TI-13. The test is described as follows: MIC by serial dilution method on nutrient agar. As to conditions: for MIC: TI13, nutrient agar, 37° C. How it is done:
as §1

Test [16] has as its system Staphylococcus aureus FDA209P. The test is described as follows: MIC by serial dilution method on nutrient agar. To be noted: 37° C. On the procedure: as §1
Test [17] has as its system some strains of gram-negative bacteria carrying R factor Staphylococcus aureus and Pseudomonas aeruginosa. The test is described as follows: resistance of strains isolated from patients.

For `CNC[C@H]1O[C@H](O[C@H]2[C@H](O)[C@@H](O[C@H]3O[C@H](CO)[C@@H](O)[C@H](N)[C@H]3O)[C@H](NC(=O)[C@@H](O)CCN)C[C@@H]2N)[C@H](O)[C@@H](O)[C@@H]1O` [1-AHB-6'-MKM, 1-N-(L-4-amino-2-hydroxybutyryl)-6'-N-methylkanamycin], the MIC came out at 6.25 µg/mL (≈ 10.4 µM) in test [1]; 1.56 µg/mL (≈ 2.6 µM) in [2]; 0.78 µg/mL (≈ 1.3 µM) in test [3]; 1.56 µg/mL (≈ 2.6 µM) in test [4]; 0.78 µg/mL (≈ 1.3 µM) against Escherichia coli K-12 R5; 0.39 µg/mL (≈ 0.65 µM) in the test with Escherichia coli K-12. Besides, the MIC stood at 1.56 µg/mL (≈ 2.6 µM) in test [5]; 0.78 µg/mL (≈ 1.3 µM) in test [6]; 0.78 µg/mL (≈ 1.3 µM) in test [7]; 1.56 µg/mL (≈ 2.6 µM) against Escherichia coli W677; 6.25 µg/mL (≈ 10.4 µM) in test [8]; 0.78 µg/mL (≈ 1.3 µM) in test [9]. The MIC in test [10] stood at 0.39 µg/mL (≈ 0.65 µM); in test [11], 12.5 µg/mL (≈ 20.8 µM); in [12], 6.25 µg/mL (≈ 10.4 µM); in [13], 50 µg/mL (≈ 83.4 µM); in test [14], 3.12 µg/mL (≈ 5.2 µM); in test [15] it was 12.5 µg/mL (≈ 20.8 µM). Besides, in test [16], the lowest concentration to inhibit growth (MIC) was 0.78 µg/mL (≈ 1.3 µM).

In the case of `NC[C@H]1O[C@H](O[C@H]2[C@H](O)[C@@H](O[C@H]3O[C@H](CO)[C@@H](O)[C@H](N)[C@H]3O)[C@H](N)C[C@@H]2N)[C@H](O)[C@@H](O)[C@@H]1O` [kanamycin], the resistance of strains result in test [17] is listed as “resistant”.

Take `CNC[C@H]1O[C@H](O[C@H]2[C@H](O)[C@@H](O[C@H]3O[C@H](CO)[C@@H](O)[C@H](N)[C@H]3O)[C@H](N)C[C@@H]2N)[C@H](O)[C@@H](O)[C@@H]1O` [6'-N-methylkanamycin, reference compound]: the “inhibition of kanamycin-resistant strain” value in [1], in test [3], in test [4], in test [8], in test [13] and in test [15] was “does not inhibit” each time.

On to `CCNC[C@H]1O[C@H](O[C@H]2[C@H](O)[C@@H](O[C@H]3O[C@H](CO)[C@@H](O)[C@H](N)[C@H]3O)[C@H](NC(=O)[C@@H](O)CCN)C[C@@H]2N)[C@H](O)[C@@H](O)[C@@H]1O` [1-AHB-6'-EKM, 1-N-(L-4-amino-2-hydroxybutyryl)-6'-N-ethylkanamycin], for which the MIC in test [1] was found to be 25 µg/mL (≈ 40.7 µM); in test [2], 3.12 µg/mL (≈ 5.08 µM); in test [3] it was 3.12 µg/mL (≈ 5.08 µM); in test [4], 6.25 µg/mL (≈ 10.2 µM); in the test with Escherichia coli K-12 R5, 1.56 µg/mL (≈ 2.54 µM); in the test with Escherichia coli K-12 it was 1.56 µg/mL (≈ 2.54 µM). In addition, the MIC in [5] stood at 3.12 µg/mL (≈ 5.08 µM); in [6], 1.56 µg/mL (≈ 2.54 µM); in test [7], 1.56 µg/mL (≈ 2.54 µM); in the test with Escherichia coli W677, 1.56 µg/mL (≈ 2.54 µM); in test [8] it was 25 µg/mL (≈ 40.7 µM); in [9] it was 1.56 µg/mL (≈ 2.54 µM). Besides, the MIC in test [10] was 3.12 µg/mL (≈ 5.08 µM); in test [11], 100 µg/mL (≈ 163 µM); in test [12] it was 25 µg/mL (≈ 40.7 µM); in test [13], 100 µg/mL (≈ 163 µM); in test [14], 25 µg/mL (≈ 40.7 µM); in [15], 50 µg/mL (≈ 81.5 µM). The compound further displayed an MIC in [16] of 1.56 µg/mL (≈ 2.54 µM).
